Literature values as cited in US20090047259A1, “Methods of Using the Calcineurin A Variant CnA-beta 1” (priority 2005, published 2009).

Tested on: calcineurin
Conditions: mdx mice

CC(=O)OCC(=O)[C@@]12N=C(C)O[C@@H]1C[C@H]1[C@@H]3CCC4=CC(=O)C=C[C@]4(C)[C@H]3[C@@H](O)C[C@@]12C [deflazacort]
NFAT-dependent genes, including utrophin: induced | calcineurin activity: activated calcineurin | myocyte viability: restored myocyte viability
